Reference: patent publication US12502386B2, “Nitrogen-containing heterocyclic compound and use thereof” (SHANGHAI SHIJIANG BIOTECHNOLOGY CO., LTD, priority 2022, dated 2025)

How the values were obtained:
Type in all cases: cell-based, human
[1] = system: Con-NCI-H82 cell; experiment: CellTiter-Glo cell viability, Con-NCI-H82 cell (empty-vector control); conditions: Homo sapiens, NCI-H82, NCI-H82 transfected with empty virus vector (control), intracellular ATP, read-out: inhibitory effect on Con-NCI-H82 (IC50)
[2] = system: ov-NNMT NCI-H82 cell; experiment: CellTiter-Glo cell viability, ov-NNMT NCI-H82 cell (NNMT overexpressed); conditions: Homo sapiens, NCI-H82, NCI-H82 overexpressing NNMT protein, intracellular ATP, read-out: inhibitory effect on OV-NNMT NCI-H82 (IC50)
[3] = system: sh-DNMT1 NCI-H82 cell; experiment: CellTiter-Glo cell viability, sh-DNMT1 NCI-H82 cell (DNMT1 knocked down); conditions: Homo sapiens, NCI-H82, NCI-H82 with DNMT1 knocked down by shRNA, intracellular ATP, read-out: inhibitory effect on sh-DNMT1 NCI-H82 (IC50)

SMILES | IC50 [1] | IC50 [2] | IC50 [3]
[2H]C1([2H])Cc2cc3c(cc2C2=Cc4ccc(OC)c(OC)c4CN21)OCO3 [AB36476] | 1.24 µM | 4.86 µM | 7.34 µM
CCOc1c(OC)ccc2c1C(C(Cl)(Cl)Cl)N1CCc3cc4c(cc3C1=C2)OCO4 (stereo not drawn) [AB35499] | 2.16 µM | 6.96 µM | 6.52 µM
CCCCCCC1c2c(ccc(OC)c2OC)C=C2c3cc4c(cc3CCN21)OCCO4 (stereo not drawn) [AB31880] | 0.99 µM | 3.32 µM | 3.86 µM
COc1ccc2c(c1OC)C(C(Cl)(Cl)Cl)N1CCc3cc4c(cc3C1=C2CCCc1ccccc1)OCCO4 (stereo not drawn) [AB35484] | 0.77 µM | 3.56 µM | 3.32 µM
COc1ccc2c(c1OCCN1CCCCC1)C(C)N1CCc3cc4c(cc3C1=C2)OCO4 (stereo not drawn) [AB35443] | 20.6 µM | 18.1 µM | 20.9 µM
COc1ccc2c(c1NCCc1ccccc1)C(C)N1CCc3cc4c(cc3C1=C2)OCO4 (stereo not drawn) [AB31895] | 1.14 µM | 3.24 µM | 4.68 µM
C1=C2c3cc4c(cc3CCN2Cc2cc3c(cc21)OCO3)OCO4 [AB36428] | 0.45 µM | 1.44 µM | 2.29 µM
COc1ccc2c(c1OC)C(C)N1CCc3cc4c(cc3C1=C2CCc1ccccc1)OCO4 (stereo not drawn) [AB35498] | 1.28 µM | 4.12 µM | 4.38 µM
COc1ccc2c(c1OC)CN1CCc3cc4c(cc3C1=C2Cc1ccc(C(C)C)cc1)OCO4 [AB31870] | 0.53 µM | 1.32 µM | 2.54 µM
COc1ccc2c(c1NCCc1ccccc1)C(C1CCCC1)N1CCc3cc4c(cc3C1=C2)OCO4 (stereo not drawn) [AB35457] | 0.96 µM | 2.56 µM | 2.33 µM
COc1ccc2c(c1OC)C(C(Cl)(Cl)Cl)N1CCc3cc4c(cc3C1=C2CCCCc1ccccc1)OCO4 (stereo not drawn) [AB35469] | 0.79 µM | 3.52 µM | 5.32 µM
COc1ccc2c(c1OC/C=C(\C)CCC=C(C)C)C(C1CCCC1)N1CCc3cc4c(cc3C1=C2)OCO4 (stereo not drawn) [AB35438] | 0.72 µM | 2.12 µM | 3.22 µM
COc1ccc2c(c1N1CCC(C(F)(F)F)CC1)C(C(Cl)(Cl)Cl)N1CCc3cc4c(cc3C1=C2)OCO4 (stereo not drawn) [AB35514] | 0.37 µM | 1.36 µM | 1.98 µM
COc1ccc2c(c1OC)C(C)N1CCc3cc4c(cc3C1=C2CCCc1ccccc1)OCO4 (stereo not drawn) [AB35411] | 1.24 µM | 2.51 µM | 4.34 µM
CCCC1=C2c3cc4c(cc3CCN2C(C(Cl)(Cl)Cl)c2c1ccc(OC)c2OC)OCO4 (stereo not drawn) [AB35492] | 1.46 µM | 4.56 µM | 4.44 µM
COc1ccc2c(c1OCCCCCCCl)C(C1CCCC1)N1CCc3cc4c(cc3C1=C2)OCO4 (stereo not drawn) [AB35440] | 0.98 µM | 2.56 µM | 4.12 µM
CCCCC1c2c(c(Br)cc(OC)c2OC)C=C2c3cc4c(cc3CCN21)OCO4 (stereo not drawn) [AB31873] | 2.88 µM | 6.32 µM | 6.08 µM
COc1ccc2c(c1OC)C(CC(C)=O)N1CCc3cc4c(cc3C1=C2)OCO4 (stereo not drawn) [AB36472] | 4.28 µM | 4.32 µM | 4.11 µM
ClC(Cl)(Cl)C1c2c(ccc3c2OCO3)C=C2c3cc4c(cc3CCN21)OCO4 (stereo not drawn) [AB35421] | 5.77 µM | 12.4 µM | 21.2 µM
COc1ccc2c(c1OCCCCOc1ccccc1)C(C1CCCC1)N1CCc3cc4c(cc3C1=C2)OCO4 (stereo not drawn) [AB35454] | 1.02 µM | 3.25 µM | 4.98 µM
COc1ccc2c(c1OC)C(C(Cl)(Cl)Cl)N1CCc3cc4c(cc3C1=C2CCCCCCCl)OCO4 (stereo not drawn) [AB35524] | 1.34 µM | 4.32 µM | 4.02 µM
[2H]C1c2c(ccc(OC)c2OC)C=C2c3cc4c(cc3CC([2H])([2H])N21)OCO4 (stereo not drawn) [AB36477] | 1.22 µM | 5.68 µM | 8.82 µM
CC1=C2c3cc4c(cc3CCN2C(C(Cl)(Cl)Cl)c2c1ccc1c2OCO1)OCO4 (stereo not drawn) [AB36442] | 15 µM | 13.3 µM | 14.1 µM
